Data set [1] has as its system C[C@@H](O)[C@H]1C(=O)N2C(C(=O)O)=C(S[C@@H]3CN[C@H](C(=O)N(C)C)C3)[C@H](C)[C@H]12. The data set can be described thus: purified protein. The note with it: 50 mM Tris-HCl pH 7.4, 5 μM Zn(NH3)2, 37°C.
From the text: (§2) UV-visible spectrophotometry, initial rates, Lineweaver-Burk plots on IMP-1
The subject of data set [2] is CC1(C)S[C@@H]2[C@H](NC(=O)Cc3ccccc3)C(=O)N2[C@H]1C(=O)O. The data set can be described thus: purified protein. To be noted: 50 mM Tris-HCl pH 7.4, 5 μM Zn(NH3)2, 37°C.
From the text: as §2
The subject of data set [3] is CO/N=C(\C(=O)N[C@@H]1C(=O)N2C(C(=O)O)=C(COC(C)=O)CS[C@H]12)c1csc(N)n1. The data set can be described thus: purified protein. To be noted: 50 mM Tris-HCl pH 7.4, 5 μM Zn(NH3)2, 37°C.
From the text: as §2
Data set [4] deals with CO[C@@]1(NC(=O)Cc2cccs2)C(=O)N2C(C(=O)O)=C(COC(N)=O)CS[C@@H]21. The data set can be described thus: purified protein. To be noted: 50 mM Tris-HCl pH 7.4, 5 μM Zn(NH3)2, 37°C.
From the text: as §2
Data set [5] relates to CO/N=C(\C(=O)N[C@@H]1C(=O)N2C(C(=O)[O-])=C(C[N+]3(C)CCCC3)CS[C@H]12)c1csc(N)n1. The data set can be described thus: purified protein. The note with it: 50 mM Tris-HCl pH 7.4, 5 μM Zn(NH3)2, 37°C.
From the text: as §2
For data set [6], the system named is CC(C)(O/N=C(\C(=O)N[C@@H]1C(=O)N2C(C(=O)[O-])=C(C[n+]3ccccc3)CS[C@H]12)c1csc(N)n1)C(=O)O. The data set can be described thus: purified protein. The note with it: 50 mM Tris-HCl pH 7.4, 5 μM Zn(NH3)2, 37°C.
From the text: as §2
Data set [7] deals with C[C@@H](O)[C@H]1C(=O)N2C(C(=O)O)=C(S[C@@H]3CN[C@H](CNS(N)(=O)=O)C3)[C@H](C)[C@H]12. The data set can be described thus: purified protein. The note with it: 50 mM Tris-HCl pH 7.4, 5 μM Zn(NH3)2, 37°C.
From the text: as §2
For data set [8], the system named is C[C@@H](O)[C@H]1C(=O)N2C(C(=O)O)=C(SCCN=CN)C[C@H]12. The data set can be described thus: purified protein. The note with it: 50 mM Tris-HCl pH 7.4, 5 μM Zn(NH3)2, 37°C.
From the text: as §2
Data set [9] deals with CC1(C)S[C@@H]2[C@H](NC(=O)[C@H](N)c3ccccc3)C(=O)N2[C@H]1C(=O)O. The data set can be described thus: purified protein. To be noted: 50 mM Tris-HCl pH 7.4, 5 μM Zn(NH3)2, 37°C.
From the text: as §2
The subject of data set [10] is CC1=C(C(=O)O)N2C(=O)[C@@H](NC(=O)[C@H](N)C3=CCC=CC3)[C@H]2SC1. The data set can be described thus: purified protein. To be noted: 50 mM Tris-HCl pH 7.4, 5 μM Zn(NH3)2, 37°C.
From the text: as §2
The test system of the next data set is T1, P. aeruginosa NCGM1984.
T1 construct: NCGM1984 (clinical isolate, ST235, two chromosomal copies of blaIMP-34)
The data set can be described thus: microbe, parasite or virus in culture. Set-up: CLSI microdilution susceptibility test, minimum inhibitory concentration of bacterial growth. To be noted: clinical isolate carrying two copies of blaIMP-34; for MIC: Pseudomonas aeruginosa, NCGM1984, read-out: MIC (μg/ml) / P. aeruginosa NCGM1984.

The test system of data set [11] is T2, E. coli DH5α (pHSG398/IMP-1).
T2 construct: DH5α (pHSG398/IMP-1) transformant expressing blaIMP-1 from pHSG398
The data set can be described thus: microbe, parasite or virus in culture. To be noted: Escherichia coli, read-out: MIC (μg/ml) / E. coli DH5α (pHSG398/IMP-1). Set-up: CLSI microdilution susceptibility test, minimum inhibitory concentration of bacterial growth. As to the method: (§1) The ORFs of blaIMP-1 and blaIMP-34 were amplified by PCR using the primers EcoRI-IMP-1/34-F(5′-gggGAATTCatgagcaagttatctgtattc-3′; uppercase letters indicate an EcoRI digestion site) and PstI-IMP-1/34-R (5′-aaaCTGCAGttagttgcttggttttgatgg-3′; uppercase letters indicate a PstI digestion site). […] The plasmids were used to transform DH5α, and transformants were selected on LB agar containing 30 μg/mL of chloramphenicol, and their susceptibilities to various β-lactams were assayed. P. aeruginosa NCGM2.S1 harboring blaIMP-1 was used as a reference strain [12].

The subject of the next data set is T3, E. coli DH5α (pHSG398).
T3 construct: DH5α (pHSG398) empty vector control
The data set can be described thus: microbe, parasite or virus in culture. Further details: CLSI microdilution susceptibility test, minimum inhibitory concentration of bacterial growth. The note with it: Escherichia coli; empty vector control; read-out: MIC (μg/ml) / E. coli DH5α (pHSG398). On the procedure:
as §1

Values after ≈ are worked out from the molar mass of the structure shown.

The term Km denotes the concentration of substrate that gives half-maximal velocity. For orientation: kcat means the maximal rate divided by the concentration of active sites. In general, kcat/Km refers to the turnover number divided by the Michaelis constant.

On to IMP-1 (Serratia marcescens), for which the Km in data set [1] worked out at 37 ± 12 µM; in [2], 685 ± 99 µM; in data set [3] it was 13 ± 2 µM; in data set [4], 34 ± 5 µM; in data set [5], 22 ± 8 µM; in data set [6] it was 26 ± 1 µM. The Km in data set [7] stood at 39 ± 8 µM; in data set [8] it was 58 ± 14 µM; in data set [9], 341 ± 17 µM; in data set [10], 73 ± 2 µM. The kcat in [1] was determined as 2.3 ± 0.2 s⁻¹; in [2] it was 94 ± 12 s⁻¹; in [3], 2.8 ± 0.1 s⁻¹; in data set [4] it was 2.7 ± 0.1 s⁻¹; in [5], 1.4 ± 0.2 s⁻¹; in [6], 0.68 ± 0.01 s⁻¹. The kcat in data set [7] was 4.8 ± 0.1 s⁻¹; in data set [8], 6.9 ± 0.5 s⁻¹; in data set [9] it was 16 ± 1 s⁻¹; in data set [10] it was 21 ± 1 s⁻¹. The kcat/Km came to 66000 M⁻¹ s⁻¹ in data set [1]; 140000 M⁻¹ s⁻¹ in data set [2]; 220000 M⁻¹ s⁻¹ in [3]; 80000 M⁻¹ s⁻¹ in data set [4]; 68000 M⁻¹ s⁻¹ in [5]; 26000 M⁻¹ s⁻¹ in [6]. Moreover, the kcat/Km in data set [7] is 130000 M⁻¹ s⁻¹; in data set [8], 120000 M⁻¹ s⁻¹; in data set [9], 48000 M⁻¹ s⁻¹; in data set [10], 290000 M⁻¹ s⁻¹.

Consider `CO[C@@]1(NC(=O)Cc2cccs2)C(=O)N2C(C(=O)O)=C(COC(N)=O)CS[C@@H]21` [Cefoxitin], for which the MIC in the data set with P. aeruginosa NCGM1984 was more than 1020 µg/mL; in data set [11] it was 512 µg/mL (≈ 1200 µM); with E. coli DH5α (pHSG398), 2 µg/mL (≈ 4.68 µM).

On to `CO/N=C(\C(=O)N[C@@H]1C(=O)N2C(C(=O)O)=C(COC(N)=O)CS[C@H]12)c1ccco1` [Cefuroxime], for which the MIC was more than 1020 µg/mL in the data set with P. aeruginosa NCGM1984, 256 µg/mL (≈ 603 µM) in data set [11] and 4 µg/mL (≈ 9.43 µM) with E. coli DH5α (pHSG398).

Turning to `CO[C@@]1(NC(=O)C(C(=O)O)c2ccc(O)cc2)C(=O)N2C(C(=O)O)=C(CSc3nnnn3C)CO[C@@H]21` (stereo partly shown) [Moxalactam], the MIC in the data set with P. aeruginosa NCGM1984 is more than 1020 µg/mL; in [11] it was 64 µg/mL (≈ 123 µM); in the data set with E. coli DH5α (pHSG398), not above 0.25 µg/mL.

On to `C[C@H]1[C@H](NC(=O)/C(=N\OC(C)(C)C(=O)O)c2csc(N)n2)C(=O)N1S(=O)(=O)O` [Aztreonam], for which the MIC in the data set with P. aeruginosa NCGM1984 was 64 µg/mL (≈ 147 µM); in data set [11], not above 0.25 µg/mL; in the data set with E. coli DH5α (pHSG398), not above 0.25 µg/mL.

Regarding `CC1(C)S[C@@H]2[C@H](NC(=O)Cc3ccccc3)C(=O)N2[C@H]1C(=O)O` [Penicillin G], the MIC is more than 1020 µg/mL in the data set on P. aeruginosa NCGM1984, 128 µg/mL (≈ 383 µM) in [11] and 32 µg/mL (≈ 95.7 µM) in the data set on E. coli DH5α (pHSG398).

Consider `CC1=C(C(=O)O)N2C(=O)[C@@H](NC(=O)[C@H](N)C3=CCC=CC3)[C@H]2SC1` [Cephradine], for which the MIC in the data set on P. aeruginosa NCGM1984 is more than 1020 µg/mL; in [11], 256 µg/mL (≈ 733 µM); in the data set on E. coli DH5α (pHSG398), 16 µg/mL (≈ 45.8 µM).

`CC1(C)S[C@@H]2[C@H](NC(=O)[C@H](N)c3ccccc3)C(=O)N2[C@H]1C(=O)O` [Ampicillin]: the MIC was more than 1020 µg/mL in the data set with P. aeruginosa NCGM1984, 32 µg/mL (≈ 91.6 µM) in [11] and 2 µg/mL (≈ 5.72 µM) with E. coli DH5α (pHSG398).

Regarding `C[C@@H](O)[C@H]1C(=O)N2C(C(=O)O)=C(SCCN=CN)C[C@H]12` [Imipenem], the MIC in the data set with P. aeruginosa NCGM1984 was 512 µg/mL (≈ 1710 µM); in [11], 0.5 µg/mL (≈ 1.67 µM); in the data set on E. coli DH5α (pHSG398), not above 0.25 µg/mL.

Regarding `CO/N=C(\C(=O)N[C@@H]1C(=O)N2C(C(=O)[O-])=C(C[n+]3cccc4c3CCC4)CS[C@H]12)c1csc(N)n1` [Cefpirome], the figures for the MIC (in the data set on P. aeruginosa NCGM1984; in data set [11]; in the data set on E. coli DH5α (pHSG398)) were 512 µg/mL (≈ 995 µM), 0.25 µg/mL (≈ 0.486 µM) and not above 0.25 µg/mL, respectively.

Consider `C[C@@H](O)[C@H]1C(=O)N2C(C(=O)O)=C(S[C@@H]3CN[C@H](CNS(N)(=O)=O)C3)[C@H](C)[C@H]12` [Doripenem], for which the MIC with P. aeruginosa NCGM1984 is more than 1020 µg/mL; in [11], 0.25 µg/mL (≈ 0.595 µM); in the data set with E. coli DH5α (pHSG398), not above 0.25 µg/mL.

`CO/N=C(\C(=O)N[C@@H]1C(=O)N2C(C(=O)[O-])=C(C[N+]3(C)CCCC3)CS[C@H]12)c1csc(N)n1` [Cefepime]: the MIC with P. aeruginosa NCGM1984 is more than 1020 µg/mL.

Consider `CO/N=C(\C(=O)N[C@@H]1C(=O)N2C(C(=O)[O-])=C(C[n+]3ccn4ncccc43)CS[C@H]12)c1nsc(N)n1` [Cefozopran], for which the MIC in the data set on P. aeruginosa NCGM1984 was more than 1020 µg/mL; in data set [11], 4 µg/mL (≈ 7.76 µM); in the data set on E. coli DH5α (pHSG398) it was not above 0.25 µg/mL.

In the case of `CC(C)(O/N=C(\C(=O)N[C@@H]1C(=O)N2C(C(=O)[O-])=C(C[n+]3ccccc3)CS[C@H]12)c1csc(N)n1)C(=O)O` [Ceftazidime], the “MIC (μg/ml) / P. aeruginosa NCGM1984” value in the data set on P. aeruginosa NCGM1984 was > 1,024 ug/mL. Further, the MIC is 512 µg/mL (≈ 937 µM) in data set [11] and not above 0.25 µg/mL in the data set on E. coli DH5α (pHSG398).

`CO/N=C(\C(=O)N[C@@H]1C(=O)N2C(C(=O)O)=C(CSc3nc(=O)c(O)nn3C)CS[C@H]12)c1csc(N)n1` [Ceftriaxone]: the values for the MIC (in the data set with P. aeruginosa NCGM1984; in data set [11]; in the data set with E. coli DH5α (pHSG398)) were more than 1020 µg/mL, 64 µg/mL (≈ 115 µM) and not above 0.25 µg/mL, respectively.

Consider `C[C@@H](O)[C@H]1C(=O)N2C(C(=O)O)=C(S[C@@H]3CN[C@H](C(=O)N(C)C)C3)[C@H](C)[C@H]12` [Meropenem], for which the results for the MIC (in the data set with P. aeruginosa NCGM1984; in data set [11]; with E. coli DH5α (pHSG398)) were more than 1020 µg/mL, 0.5 µg/mL (≈ 1.3 µM) and not above 0.25 µg/mL, respectively.

`CO/N=C(\C(=O)N[C@@H]1C(=O)N2C(C(=O)O)=C(COC(C)=O)CS[C@H]12)c1csc(N)n1` [Cefotaxime]: the MIC was more than 1020 µg/mL in the data set on P. aeruginosa NCGM1984, 16 µg/mL (≈ 35.1 µM) in data set [11] and not above 0.25 µg/mL with E. coli DH5α (pHSG398).

Source of the values: publication PMC4824433, “A Carbapenem-Resistant Pseudomonas aeruginosa Isolate Harboring Two Copies of blaIMP-34 Encoding a Metallo-β-Lactamase” (PLoS ONE, 2016).
